These results are taken from paper PMC8602723, “Comparative assessment of antimicrobial, antiradical and cytotoxic activities of cannabidiol and its propyl analogue cannabidivarin” (Scientific Reports, 2021).

A short description of assay [1]: ABTS assay (radical scavenging). To be noted: 50% reduction of initial ABTS radical absorbance, 6 min; 95% confidence limits in brackets. On the procedure:
An ABTS assay was performed following the procedure described by Lavorgna et al. 2019[66]. The cationic ABTS radical (ABTS^+) was generated by oxidizing ABTS (7 mM) with potassium persulfate (140 mM K2S2O8), and the mixture was incubated for 12–16 h in the dark. The ABTS^+ working solution was diluted to an absorbance of […] OD at 734 nm. […] Distilled water was used for the blank, Trolox was used for the standard control, and methanol was used for the solvent control.
The results are expressed as the median effective concentration (EC50). Furthermore, Trolox equivalent antioxidant capacity (TEAC) values were calculated following the procedure used by Shimamura end colleagues[68]:5 TEAC=EC50Trolox/EC50sample
(§1) All results from five independent experiments are expressed as the IC50 or EC50 as determined by analysis with Prism 5 software (GraphPad Inc., San Diego, CA, USA) and nonlinear regression (log agonist vs. normalized response-variable slope) with a 95% confidence range. Lowest observed adverse effect concentrations (LOAECs) were calculated by one-way ANOVA and Dunnett’s comparison test. Differences compared to the controls were considered significant as follows: *p < 0.05, **p < 0.001 and ***p < 0.0001.

Assay [2] in a line: DPPH assay (radical scavenging). To be noted: 50% reduction of initial DPPH radical absorbance, 30 min; 95% confidence limits in brackets. On the procedure: DPPH assay was performed following the protocol described by Brand-Williams et al.[69]. DPPH^⋅ was dissolved in methanol, generating a purple solution (101.43 µM). […] Furthermore, 940 μL of methanol and 60 μL of distilled water were used for the blank. Trolox was used as the standard control, and methanol was used as the solvent control.
The results were expressed as the median effective concentration of sample able to reduce the initial absorbance of the DPPH radical (EC50). Furthermore, TEAC values were calculated in line with Shimamura end colleagues[68] as previously reported.
as §1

For the compound `Cc1c(C)c2c(c(C)c1O)CCC(C)(C(=O)O)O2` (centres unmarked) [TROLOX, 6-Hydroxy-2,5,7,8-tetramethylchromane 2-carboxylic acid, reference compound], the 50% effective concentration (EC50) was 111 µM in assay [1] and 327 µM in assay [2].
